Laboratory results reported in ChEMBL document CHEMBL5033993, “Design, Synthesis, and Evaluation of o-(Biphenyl-3-ylmethoxy)nitrophenyl Derivatives as PD-1/PD-L1 Inhibitors with Potent Anticancer Efficacy In Vivo” (J Med Chem, 2021).
The source made the active and inactive calls.

Experiments:
Lewis lung carcinoma [1] = test: Anti-tumor activity against mouse lewis lung carcinoma cells allografted in C57BL6 mouse assessed as reduction in tumor growth at 2 to 5 mg/kg, ig for 21 days; format: functional, organism-based; conditions: dose 2-5 mg/kg, time 21.0 day
PBMC [2] = test: Upregulation of IFNgamma protein expression in CD3/CD28/PD-L1 stimulated PBMC (unknown origin) at 0.3 to 30 nM by ELISA; format: functional, tissue-based; conditions: Homo sapiens, dose 0.3-30 nM
Lewis lung carcinoma [3] = test: Immunostimulatory activity in mouse lewis lung carcinoma cells allografted in C57BL6 mouse assessed as increase in infiltration of CD8+/CD45+/CD3+ cells at 2 to 5 mg/kg, ig for 21 days by Flow cytometric analysis; format: functional, organism-based; conditions: dose 2-5 mg/kg, time 21.0 day
Lewis lung carcinoma [4] = test: Immunostimulatory activity in mouse lewis lung carcinoma cells allografted in C57BL6 mouse assessed as increase in infiltration of T cells at 2 to 5 mg/kg, ig for 21 days by Flow cytometric analysis; format: functional, organism-based; conditions: dose 2-5 mg/kg, time 21.0 day
PBMC [5] = test: Induction of immuno-regulatory activity in CD3/CD28/PD-L1 stimulated PBMC (unknown origin) at 0.3 to 30 nM by Western blot analysis; format: functional, tissue-based; conditions: Homo sapiens, dose 0.3-30 nM
Lewis lung carcinoma [6] = test: Immunostimulatory activity in mouse lewis lung carcinoma cells allografted in C57BL6 mouse assessed as increase in infiltration of IFNgamm+/CD4+ cells at 2 to 5 mg/kg, ig for 21 days by Flow cytometric analysis; format: functional, organism-based; conditions: dose 2-5 mg/kg, time 21.0 day
[7] = molecular target: Programmed cell death 1 ligand 1 (Mus musculus) (UniProt Q9EP73); test: Binding affinity to PDL1 in mouse lewis lung carcinoma cells assessed as thermal stability at 0.1 to 100 nM at 58 degC after 12 hrs by CESTA analysis; format: tissue-based; conditions: Lewis lung carcinoma cell line, dose 0.1-100 nM
Sequence of Programmed cell death 1 ligand 1 (Mus musculus) (Q9EP73 whole entry): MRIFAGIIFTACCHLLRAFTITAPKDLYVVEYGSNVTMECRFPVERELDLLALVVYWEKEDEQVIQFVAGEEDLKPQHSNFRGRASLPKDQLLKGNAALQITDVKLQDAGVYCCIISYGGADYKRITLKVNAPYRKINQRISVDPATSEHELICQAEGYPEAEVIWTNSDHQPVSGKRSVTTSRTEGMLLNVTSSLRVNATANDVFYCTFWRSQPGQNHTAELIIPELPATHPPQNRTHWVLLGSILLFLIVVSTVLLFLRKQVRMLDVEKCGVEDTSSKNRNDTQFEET

T-cell [8] = test: Cytotoxicity against C57BL6 mouse lymphnode T cell cells assessed as reduction in cell viability at 3000 nM and measured after 24 to 72 hrs by MTT assay; format: cell-based; conditions: 3 µM, time 24-72 hrs
Mus musculus [9] = test: Upregulation of IFNgamma protein expression in C57BL6 mouse serum allografted with mouse lewis lung carcinoma cells at 2.5 to 5 mg/kg, ig for 21 days by ELISA; format: functional, organism-based; conditions: dose 2.5-5 mg/kg, time 21.0 day
T-cell [10] = test: Upregulation of IFNgamma protein expression in CON-A stimulated C57BL6 mouse lymphnode T cell co-cultured with Lewis lung carcinoma cell line at 0.3 to 30 nM by ELISA; format: functional, tissue-based; conditions: dose 0.3-30 nM
[11] = molecular target: T1, Programmed cell death protein 1/Programmed cell death 1 ligand 1 (Homo sapiens, UniProt Q15116+Q9NZQ7); test: Inhibition of human PD-1/PD-L1 interaction assessed as disruption of PD-1/PD-L1 complex incubated for 2 hrs by Tag-1 Eu3+ and anti-Tag2-XL665 based HTRF assay; format: protein-complex assay
T1 sequence (Q15116 whole entry): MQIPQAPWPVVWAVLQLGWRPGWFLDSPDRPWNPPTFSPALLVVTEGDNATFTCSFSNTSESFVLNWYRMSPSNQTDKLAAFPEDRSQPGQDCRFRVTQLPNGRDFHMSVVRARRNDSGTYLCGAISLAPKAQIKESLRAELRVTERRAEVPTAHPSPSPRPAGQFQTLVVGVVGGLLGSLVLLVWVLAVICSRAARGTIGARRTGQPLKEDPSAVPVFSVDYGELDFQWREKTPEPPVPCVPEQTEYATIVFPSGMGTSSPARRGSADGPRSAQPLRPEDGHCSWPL
T1 sequence (Q9NZQ7 whole entry): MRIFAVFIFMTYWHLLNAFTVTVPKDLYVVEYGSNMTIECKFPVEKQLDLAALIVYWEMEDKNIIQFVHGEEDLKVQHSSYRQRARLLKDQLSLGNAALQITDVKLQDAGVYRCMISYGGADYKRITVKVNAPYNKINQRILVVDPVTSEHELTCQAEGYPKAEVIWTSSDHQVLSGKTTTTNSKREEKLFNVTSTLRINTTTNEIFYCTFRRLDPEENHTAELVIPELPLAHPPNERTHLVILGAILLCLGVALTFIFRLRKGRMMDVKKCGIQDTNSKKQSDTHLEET

[12] = Cytotoxicity against mouse lewis lung carcinoma cells assessed as reduction in cell viability at 0.3 to 3000 nM and measured after 24 to 72 hrs by MTT assay; format: cell-based; conditions: 3 µM, dose lower 0.3 nM, time lower 24 hrs, dose upper 3000 nM, time upper 72 hrs
[13] = Anti-tumor activity against mouse lewis lung carcinoma cells allografted in C57BL6 mouse assessed as reduction in tumor growth at 2 mg/kg, ig for 21 days relative to control; format: functional; conditions: po, 504 h, time 21 day, read-out: TGI
Mus musculus [14] = test: Toxicity in C57BL6 mouse allografted with mouse lewis lung carcinoma cells assessed as reduction body weight at 2 mg/kg, ig for 21 days; format: organism-based; conditions: in vivo, po, 504 h, time 21 day
[15] = molecular target: T1, Programmed cell death protein 1/Programmed cell death 1 ligand 1; test: Potency index, ratio of BMS-202 IC50 to test compound IC50 for inhibition of human PD-1/PD-L1 interaction assessed as disruption of PD-1/PD-L1 complex incubated for 2 hrs by Tag-1 Eu3+ and anti-Tag2-XL665 based HTRF assay; format: protein-complex assay
Lewis lung carcinoma [16] = test: Anti-tumor activity against mouse lewis lung carcinoma cells allografted in C57BL6 mouse assessed as reduction PCNA protein expression level at 2 to 5 mg/kg, ig for 21 days by immunohistochemistry analysis; format: functional, organism-based; conditions: dose 2-5 mg/kg, time 21.0 day
[17] = Anti-tumor activity against mouse lewis lung carcinoma cells allografted in C57BL6 mouse assessed as reduction in tumor growth at 5 mg/kg, ig for 21 days relative to control; format: functional; conditions: po, 504 h, time 21 day, read-out: TGI
Lewis lung carcinoma [18] = test: Immunostimulatory activity in mouse lewis lung carcinoma cells allografted in C57BL6 mouse assessed as increase in infiltration of CD8+ cells at 2 to 5 mg/kg, ig for 21 days by Flow cytometric analysis; format: functional, organism-based; conditions: dose 2-5 mg/kg, time 21.0 day
Lewis lung carcinoma [19] = test: Induction of apoptosis in mouse lewis lung carcinoma cells allografted in C57BL6 mouse assessed as Increase in TUNEL positive cells at 2 to 5 mg/kg, ig for 21 days by TUNEL assay; format: functional, organism-based; conditions: dose 2-5 mg/kg, time 21.0 day
[20] = molecular target: Programmed cell death 1 ligand 1 (Mus musculus) (UniProt Q9EP73); test: Binding affinity to PDL1 in mouse lewis lung carcinoma cells assessed as thermal stability at 3 nM at 43 to 70 degC after 12 hrs by CESTA analysis; conditions: Lewis lung carcinoma cell line
Lewis lung carcinoma [21] = test: Immunostimulatory activity in mouse lewis lung carcinoma cells allografted in C57BL6 mouse assessed as increase in infiltration of total immune cells at 2 to 5 mg/kg, ig for 21 days by Flow cytometric analysis; format: functional, organism-based; conditions: dose 2-5 mg/kg, time 21.0 day
Mus musculus [22] = test: Toxicity in C57BL6 mouse allografted with mouse lewis lung carcinoma cells assessed as reduction body weight at 5 mg/kg, ig for 21 days; format: organism-based; conditions: in vivo, po, 504 h, time 21 day

Cc1c(COc2cc(OCc3cccc(C#N)c3)c(CN[C@H](C(=O)O)[C@@H](C)O)cc2[N+](=O)[O-])cccc1-c1ccccc1
48.5%: inhibition in vivo at 5 mg/kg [17]
2.7 nM: IC50 [11]
25: Ratio IC50 [15]
Non-Toxic: Activity (T-cell [8]) | Activity [12] | Activity (Mus musculus [14]) | Activity (Mus musculus [22])
active: TGI (Lewis lung carcinoma [1]) Dose-Dependent Effect | Activity (PBMC [2]) Dose-Dependent Effect | Activity (Lewis lung carcinoma [3]) | Activity (Lewis lung carcinoma [4]) | Activity (PBMC [5]) Dose-Dependent Effect | Activity (Lewis lung carcinoma [6]) | Activity [7] Dose-Dependent Effect | Activity (Mus musculus [9]) Dose-Dependent Effect | Activity (T-cell [10]) Dose-Dependent Effect | Activity (Lewis lung carcinoma [16]) Dose-Dependent Effect | Activity (Lewis lung carcinoma [18]) | Activity (Lewis lung carcinoma [19]) Dose-Dependent Effect | Activity [20] | Activity (Lewis lung carcinoma [21])
17.3%: inhibition in vivo at 2 mg/kg [13]
